Patent US7820720B2 (TDT Limited, priority 2008, dated 2010)

Test: Terbinafine serum concentration after topical administration (LC-MSMS)
Type: in vivo, human
Conditions: topical terbinafine formulation, 6.0 mg dose; day 1 and week 12; all individuals, each time point, steady state and all trough levels
Protocol: Blood samples (2.7 ml) for the determination of terbinafine concentrations in serum were taken before the first application (0 hour) and 0.5, 1, 2, 4, 8, and 12 hours after administration of a 6.0 mg dose of topical terbinafine. The sample 12 hours following the first administration was taken before the second daily administration of the topical terbinafine formulation.
Serum samples for terbinafine were analyzed by LC-MSMS. The internal standard used was naftifine. Samples were prepared by adding 50 μL serum to 50 μL methanol and 300 μL of internal standard solution (50 μg/L naftifine in 9:1 acetonitrile/methanol solution). The solution was allowed to stand for 5 minutes, and then subjected to centrifugation. After centrifugation, 50 μL of the supernatant was added to 450 μL of the mobile phase solution.
The serum concentrations were measured at day 1 and week 12 of the study.

Terbinafine serum concentration: less than 1 ng/ml
Structure (SMILES): CN(C/C=C/C#CC(C)(C)C)Cc1cccc2ccccc12 [terbinafine]
